Consider 26 compounds from US12043625B2, “Pyridine derivatives with c-linked cyclic substituents as cGAS inhibitors” (BOEHRINGER INGELHEIM INTERNATIONAL GMBH, priority 2021, dated 2024).

Test [1] has as its system IFN induction in dsDNA-stimulated human whole blood. In words: Human whole blood assay, dsDNA transfection, IFNα2a production (hWB IC50).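 Further: cGAS pathway activity, IFNα2a in plasma by MSD immunoassay after 22 h at 37 °C, 8 concentrations up to 10 µM in 0.1% DMSO, DMSO controls.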 It is filed as cell-based.
Description: For the detection of cellular cGAS activity human whole blood was stimulated by transfection with double stranded DNA. Pathway activity was monitored by measuring the IFNα2α production.
Typically, 8 concentrations were used with the highest concentration at 10 μM in the final assay volume followed by ˜1:5 dilution steps. DMSO concentration was set to 0.1% in the final assay volume. The 96-well assay plate contained 10 test compounds, and DMSO in control wells.
Whole blood was kept at room temperature for a maximum of 3 hours after collection until use in the assay.
160 μl of the whole blood samples was transferred to each well of the 96-well assay plates filled with compound/OptiMEM. All assay plates were prepared as duplicates with blood from different donors. Blood plates were kept at room temperature for 60 minutes and continuous shaking with 450 rpm, covered with the lid, but not sealed.
20 μl OptiMEM and 9.6:1 Fugene was added to all low control wells.
After covering assay plates with aera seals and the lid, blood plates were kept at room temperature for 30 minutes and continuous shaking with 450 rpm, followed by an overnight incubation of 22 h at 37° C. in the incubator, without shaking.
U-Plex MSD GOLD 96-well Small Spot Strepavidin SECTOR Plates (Meso Scale Diagnostics #L45SA-5) were coated with 25 μl diluted capture antibody. Coated plates were incubated for 60 min at room temperature under continuous shaking at 700 rpm. MSD IFNα-2a plates were washed three times with 150 μl wash buffer (1×HBSS, 0.05% Tween).
After blocking the plates with 100 μl block solution/well (1×HBSS with 0.2% Tween, 2% BSA) for 60 min at room temperature and continuous shaking at 700 rpm, plates were emptied as dry as possible by dumping just before continuing with the human plasma.
Whole Blood assay plates were centrifuged at 1600 rpm for 10 minutes. 25 μl of supernatant was transferred with a pipetting robot from each whole blood plate to the corresponding IFNα-2a plate.
Plates were sealed with microplate seals and kept at room temperature again under continuous shaking at 700 rpm for two hours.
Next MSD IFNα-2a plates were washed three times with 150 μl wash buffer (1×HBSS, 0.05% Tween), before adding 25 μl MSD SULFO-TAG IFNα-2a Antibody solution (1:100 diluted in Diluent 3 (Meso Scale Diagnostics #R50AP-2) to each well of the plates.
Afterwards plates were sealed with microplate seals and kept at room temperature again under continuous shaking at 700 rpm for two hours. Finally, MSD IFNα-2α plates were washed three times with 150 μl wash buffer (1×HBSS, 0.05% Tween). 150 μl 2× Read buffer was added to each well and plates were immediately measured with the MSD Sector S600 Reader using the vendor barcode.
For data evaluation and calculation, % control calculation of each well was based on the mean of high (DNA stimulated control) and mean of low (unstimulated control) controls by using the following formula: [counts(sample)−counts(low))/(counts(high)−counts(low))]*100
The IC50 values were calculated using the standard 4 parameter logistic regression formula. Calculation: [y=(a−d)/(1+(x/c)^b)+d], a=low value, d=high value; x=conc M; c=1C50 M; b=slope
In the next test the target is Human cGAS (Homo sapiens (Human), UniProt Q8N884). Briefly: Human cGAS enzyme assay (hcGAS IC50, in vitro), cGAMP formation by RapidFire MS.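 Further: compounds preincubated 60 min, then GTP and ATP (30 µM each) added for 90 min at room temperature, cGAMP read relative to cyclic-di-GMP internal standard, no-enzyme/DNA wells as 0%.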 It is filed as biochemical. The conditions noted are these: 45 bp dsDNA, GTP/ATP.
Test [2] deals with IFN induction in virus-stimulated THP1 cells. Briefly: Human cGAS cell assay, baculovirus-stimulated THP1-Dual cells, Lucia luciferase reporter (THP1(vir) IC50).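 On all read-outs here: IRF-dependent luminescence, 8 concentrations up to 10 µM in 1% DMSO, 0% = unstimulated cells, 100% = DMSO plus virus, counter assay stimulated with cGAMP downstream of cGAS.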 The conditions noted are these: for IC50: Homo sapiens, THP-1, baculovirus-stimulated THP1-Dual cells, 18 h; for Ratio THP(cGAMP) IC50/THP(vir) IC50: selectivity for cGAS inhibition. The class given is cell-based. Background: In a reporter assay the amount or activity of a reporter protein is the signal.

Test [3] relates to IFN induction in cGAMP-stimulated THP1 cells. Briefly: cGAMP stimulated counter cell assay, THP1-Dual cells, Lucia luciferase reporter (THP1(cGAMP) IC50).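 Further: IRF-driven Lucia luciferase luminescence after 18 h at 37° C, compound series topping at 10 µM with 1% DMSO, unstimulated wells as 0% and DMSO wells as 100%.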 The class given is cell-based. The conditions noted are these: Homo sapiens, THP-1, THP1-Dual cells stimulated with 10 μM cGAMP.
Excerpt: 6.2 Method: Human cGAS Cell Assay and cGAMP Stimulated Counter Cell Assay (THP1(vir) IC50 and THP1(cGAMP) IC50)
THP1-Dual™ cells (InvivoGen #thpd-nfis) expressing IRF dependent Lucia luciferase reporter were used as basis for both assays.
For the counter assay, cells were stimulated by cGAMP (SigmaAldrich #SML1232) to activate the identical pathway independent and directly downstream of cGAS (measurement of THP1(cAMP) IC50). Pathway activity was monitored by measuring the Lucia luciferase activity induced by either DNA stimulated cGAS enzyme activity (measurement of THP1^(vir) IC50) or by cGAMP directly (measurement of THP1(cAMP) IC50, counter assay).
Compounds were delivered in 10 mM DMSO solution, serially diluted and transferred to the 384 well assay plate (Greiner #781201) using an Echo acoustic dispenser. Typically, 8 concentrations were used with the highest concentration at 10 μM in the final assay volume followed by ˜1:5 dilution steps. DMSO concentration was set to 1% in the final assay volume. The 384 well assay plate contained 21 test compounds (column 1-22), and DMSO in column 23 and 24.
30 μL of the cell/virus-mix were added to each well of the compound plate from column 1-23 via MultiDrop Combi dispenser (5000 cells/well). In column 24, 30 μl/5000 cells/well without virus were added as a low control.
The plates were then incubated for 18 h at 37° C. in a humidified incubator.
Following that, 15 μL of QuantiLuc detection reagent (InvivoGen #rep-qlcg5) were added to each well using a MultiDrop Combi. Measurement was done immediately after the addition using an EnVision reader (US-luminescence read-mode).
Data Evaluation and Calculation:
For data evaluation and calculation, the measurement of the low control was set as 0% control and the measurement of the high control was set as 100% control. The IC50 values were calculated using the standard 4 parameter logistic regression formula. Calculation: [y=(a−d)/(1+(x/c)^b)+d], a=low value, d=high value; x=conc M; c=1C50 M; b=slope

A word on the IC50: it is the point on the concentration scale where inhibition reaches its midpoint.

A value given as a limit tells only on which side of the number the result lay.

Chain of Human cGAS (Q8N884 whole entry): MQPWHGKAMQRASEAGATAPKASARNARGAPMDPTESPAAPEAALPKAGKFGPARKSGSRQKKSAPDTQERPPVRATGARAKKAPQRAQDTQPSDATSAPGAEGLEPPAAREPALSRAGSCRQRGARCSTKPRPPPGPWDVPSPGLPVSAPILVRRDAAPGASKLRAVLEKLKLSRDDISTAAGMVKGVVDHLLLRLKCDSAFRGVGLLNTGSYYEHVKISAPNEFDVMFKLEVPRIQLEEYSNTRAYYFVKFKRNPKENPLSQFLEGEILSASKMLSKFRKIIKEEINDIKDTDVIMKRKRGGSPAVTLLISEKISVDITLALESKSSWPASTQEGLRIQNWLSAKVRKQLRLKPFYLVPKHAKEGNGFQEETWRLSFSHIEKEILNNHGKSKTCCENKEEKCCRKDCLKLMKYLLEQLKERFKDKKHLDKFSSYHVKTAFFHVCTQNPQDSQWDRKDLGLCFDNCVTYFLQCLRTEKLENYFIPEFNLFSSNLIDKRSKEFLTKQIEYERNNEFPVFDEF

In the case of `C#Cc1cnc(O[C@H]2C[C@@H](C(=O)O)N(c3nc(C(F)F)nc4c3oc3ccccc34)C2)c(C2(F)CCS(=O)(=O)CC2)c1` [Example 2.03], the IC50 is 40 nM in test [1], 2 nM against Human cGAS, 112 nM in test [2] and more than 16600 nM in test [3]. The “Ratio THP(cGAMP) IC50/THP(vir) IC50” value in test [2] is given as more than 148.

For the compound `C[C@H]1CS(=O)(=O)CC[C@@]1(F)c1cc(Cl)cnc1O[C@H]1C[C@@H](C(=O)O)N(c2nc(C(F)F)nc3c2oc2ccccc23)C1` [Example 1.11], the IC50 was 194 nM in test [1], 2 nM on Human cGAS, 731 nM in test [2] and more than 16600 nM in test [3].

For the compound `CC(=O)N1CC[C@](F)(c2cc(-c3cccc(N(C)C)c3)cnc2O[C@H]2C[C@@H](C(=O)O)N(c3nc(C(F)F)nc4c3oc3ccccc34)C2)[C@@H](C)C1` [Example 3.04], the IC50 is 46 nM in test [1], 29 nM against Human cGAS, 16 nM in test [2] and 10500 nM in test [3]. In addition, the “Ratio THP(cGAMP) IC50/THP(vir) IC50” value in test [2] is reported as 650.

`Cc1nc(N2CCC[C@H]2C(=O)O)c2oc3ccccc3c2n1` [Example 15, reference compound]: the IC50 in test [2] and in test [3] was more than 17000 nM throughout.

Regarding `Cc1nc(N2C[C@@H](CC(=O)Nc3ccncc3)C[C@H]2C(=O)O)c2oc3ccccc3c2n1` [Example 28, reference compound], the IC50 in test [1] was more than 9990 nM; in test [2] it was more than 32000 nM; in test [3], more than 17000 nM.

For the compound `COc1cc(-c2cnc(O[C@H]3C[C@@H](C(=O)O)N(c4nc(C(F)F)nc5c4oc4ccccc45)C3)c([C@@]3(F)CCN(C(C)=O)C[C@@H]3C)c2)c(F)cn1` [Example 3.03], the IC50 in test [1] came out at 53 nM; on Human cGAS, 12 nM; in test [2], 18 nM; in test [3], 10400 nM. The “Ratio THP(cGAMP) IC50/THP(vir) IC50” value in test [2] is reported as 568.

For `N#CN1CCC(F)(c2cc(Cl)cnc2O[C@H]2C[C@@H](C(=O)O)N(c3nc(C(F)F)nc4c3oc3ccccc34)C2)CC1` [Example 2.05], the IC50 in test [1] is 945 nM; at Human cGAS, 6 nM; in test [2] it was 718 nM; in test [3], 16700 nM. The “Ratio THP(cGAMP) IC50/THP(vir) IC50” value in test [2] is on record as 23.

For the compound `COc1cncc(-c2cnc(O[C@H]3C[C@@H](C(=O)O)N(c4nc(C(F)F)nc5c4oc4ccccc45)C3)c([C@@]3(F)CCOC[C@@H]3C)c2)c1` [Example 6.02], the half-inhibitory concentration (IC50) was 45 nM in test [1], 6 nM at Human cGAS, 5 nM in test [2] and more than 16600 nM in test [3]. Besides, in test [2], the “Ratio THP(cGAMP) IC50/THP(vir) IC50” value was more than 3212.

On to `O=C(O)[C@@H]1C[C@H](Oc2ncc(Cl)cc2[C@]2(F)CCS(=O)(=O)C3(CC3)C2)CN1c1nc(C(F)F)nc2c1oc1ccccc12` [Example 1.17], for which the IC50 in test [1] came to 45 nM; against Human cGAS, 3 nM; in test [2] it was 54 nM; in test [3], 22100 nM. The “Ratio THP(cGAMP) IC50/THP(vir) IC50” value in test [2] turned out to be 412.

Regarding `O=C(O)[C@@H]1C[C@H](Oc2ncc(Cl)cc2[C@@]2(F)CCS(=O)(=O)C3(COC3)C2)CN1c1nc(C(F)F)nc2c1oc1ccccc12` [Example 1.19], the IC50 came out at 316 nM in test [1], 5 nM against Human cGAS, 566 nM in test [2] and 14000 nM in test [3]. For the same compound, the “Ratio THP(cGAMP) IC50/THP(vir) IC50” value in test [2] is 25.

As to `CO[C@]1(c2cc(Cl)cnc2O[C@H]2C[C@@H](C(=O)O)N(c3nc(C(F)F)nc4c3oc3ccccc34)C2)CC(C)(C)S(=O)(=O)C[C@@H]1C` [Example 1.05], the IC50 in test [1] is 135 nM; on Human cGAS it was 2 nM; in test [2], 44 nM; in test [3], 13200 nM. In test [2], the “Ratio THP(cGAMP) IC50/THP(vir) IC50” value was determined as 298.

Regarding `O=C(O)[C@@H]1C[C@H](Oc2ncc(Cl)cc2[C@]2(F)CCS(=O)(=O)C3(COC3)C2)CN1c1nc(C(F)F)nc2c1oc1ccccc12` [Example 1.20], the IC50 is 55 nM in test [1], 3 nM at Human cGAS, 139 nM in test [2] and 15500 nM in test [3]. In addition, the “Ratio THP(cGAMP) IC50/THP(vir) IC50” value in test [2] was 111.

Take `O=C(O)[C@@H]1C[C@H](Oc2ncc(Cl)cc2[C@@]2(F)CCS(=O)(=O)C3(CC3)C2)CN1c1nc(C(F)F)nc2c1oc1ccccc12` [Example 1.18]: the IC50 in test [1] was determined as 287 nM; at Human cGAS it was 9 nM; in test [2], 535 nM; in test [3] it was 10900 nM. Also, the “Ratio THP(cGAMP) IC50/THP(vir) IC50” value in test [2] is recorded as 20.

`CC1(C)C[C@](F)(c2cc(Cl)cnc2O[C@H]2C[C@@H](C(=O)O)N(c3nc(C(F)F)nc4c3oc3ccccc34)C2)CCS1(=O)=O` [Example 2.08]: the IC50 in test [1] turned out to be 28 nM; against Human cGAS, 5 nM; in test [2], 25 nM; in test [3] it was 12000 nM. Further, in test [2], the “Ratio THP(cGAMP) IC50/THP(vir) IC50” value stood at 479.

Take `CC#Cc1cnc(O[C@H]2C[C@@H](C(=O)O)N(c3nc(C(F)F)nc4c3oc3ccccc34)C2)c([C@@]2(F)CCN(C(C)=O)C[C@@H]2C)c1` [Example 2.18]: the IC50 in test [1] was 97 nM; on Human cGAS, 13 nM; in test [2], 59 nM; in test [3] it was 12600 nM. In addition, the “Ratio THP(cGAMP) IC50/THP(vir) IC50” value in test [2] was found to be 215.

Regarding `C[C@H]1CS(=O)(=O)C(C)(C)C[C@]1(F)c1cc(Cl)cnc1O[C@H]1C[C@@H](C(=O)O)N(c2nc(C(F)F)nc3c2oc2ccccc23)C1` [Example 1.16], the IC50 in test [1] came out at 6 nM; on Human cGAS, 5 nM; in test [2], 8 nM; in test [3] it was 8240 nM. Further, the “Ratio THP(cGAMP) IC50/THP(vir) IC50” value in test [2] is 1055.

For the compound `O=C(O)[C@@H]1C[C@H](Oc2ncc(Cl)cc2[C@]2(F)CCS(=O)(=O)C3(CCC3)C2)CN1c1nc(C(F)F)nc2c1oc1ccccc12` [Example 1.21], the concentration for half-maximal inhibition (IC50) in test [1] worked out at 76 nM; on Human cGAS, 5 nM; in test [2], 126 nM; in test [3], 9280 nM. In addition, the “Ratio THP(cGAMP) IC50/THP(vir) IC50” value in test [2] amounted to 74.

Regarding `C#Cc1cnc(O[C@H]2C[C@@H](C(=O)O)N(c3nc(C(F)F)nc4c3oc3ccccc34)C2)c([C@@]2(F)CCOC[C@@H]2C)c1` [Example 1.02], the IC50 in test [1] was 103 nM; on Human cGAS it was 3 nM; in test [2] it was 351 nM; in test [3] it was 18900 nM. Moreover, the “Ratio THP(cGAMP) IC50/THP(vir) IC50” value in test [2] stood at 54.

In the case of `O=C(O)[C@@H]1C[C@H](Oc2ncc(-n3cc(Cl)cn3)cc2C2(F)CCOCC2)CN1c1nc(C(F)F)nc2c1oc1ccccc12` [Example 5.01, (2S,4S)-4-{[5-(4-chloro-1H-pyrazol-1-yl)-3-(4-fluorooxan-4-yl)pyridin-2-yl]oxy}-1-[4-(difluoromethyl)-8-oxa-3,5-diazatricyclo[7.4.0.0^2,7]trideca-1(13),2,4,6,9,11-hexaen-6-yl]pyrrolidine-2-carboxylic acid], the 50% inhibitory concentration (IC50) is 2890 nM in test [1], 12 nM against Human cGAS, 1000 nM in test [2] and more than 16600 nM in test [3]. Also, the “Ratio THP(cGAMP) IC50/THP(vir) IC50” value in test [2] is given as more than 17.

On to `C#Cc1cnc(O[C@H]2C[C@@H](C(=O)OC)N(c3nc(C(F)(F)F)nc4c3oc3ccccc34)C2)c([C@@]2(F)CCS(=O)(=O)C[C@@H]2C)c1` [Example P01], for which the IC50 in test [1] is 67 nM; against Human cGAS, 19100 nM; in test [2], 11 nM; in test [3], more than 16600 nM.

As to `C[C@H]1CS(=O)(=O)C(C)(C)C[C@]1(F)c1cc(Cl)cnc1O[C@H]1C[C@@H](C(=O)O)N(c2nc(C(F)(F)F)nc3c2oc2ccccc23)C1` [Example 1.06], the IC50 in test [1] was found to be 24 nM; against Human cGAS, 5 nM; in test [2] it was 12 nM; in test [3], 5820 nM. For the same compound, the “Ratio THP(cGAMP) IC50/THP(vir) IC50” value in test [2] is listed as 479.

Consider `CC(C)(C(=O)N[C@H]1C[C@@H](C(=O)O)N(c2nc(C(F)(F)F)nc3c2oc2ccccc23)C1)c1cn[nH]c1` [Example 58, reference compound], for which the IC50 in test [1] was more than 9980 nM; in test [2], 21000 nM; in test [3], 23000 nM.

On to `C[C@@H]1CS(=O)(=O)CC[C@@]1(F)c1cc(Cl)cnc1O[C@H]1C[C@@H](C(=O)O)N(c2nc(C(F)F)nc3c2oc2ccccc23)C1` [Example 1.12], for which the half-inhibitory concentration (IC50) at Human cGAS turned out to be 9 nM; in test [2], 314 nM; in test [3], 15300 nM.

As to `O=C(O)[C@@H]1C[C@H](Oc2ncc(Cl)cc2C2(F)CCS(=O)(=O)CC2)CN1c1nc(C(F)F)nc2c1oc1ccccc12` [Example 2.01, (2S,4S)-4-{[5-Chloro-3-(4-fluoro-1,1-dioxo-1-I-6-thian-4-yl)pyridin-2-yl]oxy}-1-[4-(difluoromethyl)-8-oxa-3,5-diazatricyclo[7.4.0.0^2,7]trideca-1(13),2,4,6,9,11-hexaen-6-yl]pyrrolidine-2-carboxylic acid], the IC50 against Human cGAS was 3 nM; in test [2], 179 nM; in test [3] it was more than 16600 nM. Also, the “Ratio THP(cGAMP) IC50/THP(vir) IC50” value in test [2] is more than 93.

As to `Cc1nc(N2C[C@@H](Nc3ccncc3)C[C@H]2C(=O)O)c2oc3ccccc3c2n1` [Example 38, reference compound], the 50% inhibitory concentration (IC50) in test [1] is more than 9990 nM; in test [2], more than 17000 nM; in test [3] it was more than 17000 nM.

For `C[C@H]1COCC[C@]1(O)c1cc(Cl)cnc1O[C@H]1C[C@@H](C(=O)O)N(c2nc(C(F)F)nc3c2oc2ccccc23)C1` [Example 1.01, (2S,4S)-4-({5-Chloro-3-[(3S,4R)-4-hydroxy-3-methyloxan-4-yl]pyridin-2-yl}oxy)-1-[4-(difluoro-methyl)-8-oxa-3,5-diazatricyclo[7.4.0.0^2,7]trideca-1(13),2,4,6,9,11-hexaen-6-yl]pyrrolidine-2-carboxylic acid], the IC50 was 5 nM on Human cGAS, 530 nM in test [2] and more than 16600 nM in test [3]. In test [2], the “Ratio THP(cGAMP) IC50/THP(vir) IC50” value is listed as more than 31.
